“Also recorded” adds a separate entry of the source.
Assays:
Type in all cases: cell-based
[1] = system: NFκB responsive element luciferase reporter in HEK293A cells; experiment: NFκB transcriptional activity reporter assay; settings: 20 ng/mL TNF-α, 24 h, n = 6
Protocol: (§1) Reporter plasmids (Promega, Madison, WI, USA) with luciferase driven by NFκB or SMAD responsive elements were stably established in HEK293A cells and maintained by a puromycin-containing culture medium. Chemiluminescence levels represent the luciferase expression was determined by the ONE-Glo reagent (Promega, USA). The fold change of each group to the DMSO vehicle control group was calculated.
(§2) Statistical analysis was conducted via a one-tailed unpaired t-test in comparison compound treating group with the group only treated with TNF-α or TGF-β by Microsoft Excel software. The significance was annotated on plots of the result, * for p < 0.05, ** for p < 0.01, and *** for p < 0.001.

[2] = system: phospho-NFκB p65(S536); experiment: TNF-α-induced NFκB phosphorylation by immunoblotting; settings: 20 ng/mL TNF-α, 30 min, THP-1 cells, n = 3
Protocol: (§3) THP-1 monocyte cell line that was gifted from Prof. Tsung-Hsien Chang (National Defense Medical Center, Taiwan) was used to examine for TNF-α-induced NFκB phosphorylation; CCD966SK fibroblast cell line that purchased from Bioresource Collection and Research Centre (BCRC; Taiwan) was used to examine for TGF-β-induced Smad2/3 phosphorylation. The procedure of protein preparation, separation, blotting, and detection was conducted referred to previously. The primary antibodies against phospho-NFκB p65(S536), NFκB p65, phospho-Smad 2(S465/467)/Smad 3(S423/425), and Smad 2/3 were purchased from Cell Signaling (USA). The level of Gapdh expression served as an internal control for protein loading. The annotated number represents the quantified level from normalized by both NFκB p65/Smad 2/3 and Gapdh and calculated the fold change phospho-NFκB or phospho-Smad 2/3 to their DMSO vehicle control group by ImageJ software. IκB/IKK inhibitor BAY 11-7082 (Cayman) and TGFβRI inhibitor LY3200882 (Medchemexpres) as positive controls.
as §2

[3] = MTT cytotoxicity assay, summary over the cell panel; settings: human; general density of 1 × 10^4/96-well; most cells / various cancer cells
Protocol: (§4) The cell lines A549, MCF-7, MDA-MB-231, SH-SY5Y, and WI-38 were purchased from Bioresource Collection and Research Centre (BCRC; Taiwan). […] Chin-Chung Wu (Kaohsiung Medical University, Taiwan), and HCT15 and HCT116 cells were given by Prof. Chen-Yang Shen (Academia Sinica, Taiwan). 1 × 10^3 or 1 × 10^4 cells were seeded in a 96-well one day before compounds treatment.

[4] = MTT cytotoxicity assay; settings: human, SH-SY5Y neuroblastoma cells
Protocol: as §4

[5] = system: SH-SY5Y; experiment: MTT cytotoxicity assay; settings: among seven cancer and one fibroblast cell lines
Protocol: as §4

[6] = system: SMAD responsive element luciferase reporter in HEK293A cells; experiment: SMAD transcriptional activity reporter assay; settings: 20 ng/mL TGF-β, 24 h
Protocol: as §1, §2

[7] = system: phospho-Smad 2(S465/467)/Smad 3(S423/425); experiment: TGF-β-induced Smad2/3 phosphorylation by immunoblotting; settings: 20 ng/mL TGF-β, 30 min, CCD966SK fibroblasts, n = 3
Protocol: as §3, §2

| Structure (SMILES) | NFκB transcriptional activity by reporter assay ([1]; 20 μM compound) | IC50 at 48 h [3] [µM] | TGF-β-stimulated SMAD transcriptional activity ([6]; 20 μM compound, n = 6) | TNF-α-induced NFκB phosphorylation ([2]; 20 μM compound) | TGF-β-induced Smad2/3 phosphorylation ([7]; 20 μM compound) | further results |
| --- | --- | --- | --- | --- | --- | --- |
| Cc1ccc(S(=O)(=O)/C=C/C#N)cc1 [BAY 11-7082, reference compound] |  |  |  |  |  | NFκB transcriptional activity by reporter assay ([1]; 10 μM positive control): alter; TNF-α-induced NFκB phosphorylation ([2]; 10 μM positive control): significantly reduce |
| CCC(C)C(O)C(C)(O)C=CC1=CC2=C(Cl)C(=O)C(C)(O)C(OC(C)=O)C2CO1 (stereo not drawn) [Compound 1, 8a-epi-hypocrellone A] | did not change; also recorded: remains | > 100 | increased | inhibit; also recorded: significantly reduce |  | IC50 at 48 h ([4]; general density 1 × 10^4/96-well (Table 2)): 35.6 µM; IC50 at 48 h ([4]; very low density 1 × 10^3/96-well (Table 3)): 26.8 µM; selective toxicity toward SH-SY5Y [5]: selective toxicity |
| CCC(C)C(O)C(C)(O)C=CC1=CC2=C(Cl)C(=O)C(C)(O)C(OC(C)=O)C2CO1 (stereo not drawn) [Compound 2, 8a-epi-eupenicilazaphilone C] |  |  | promote; also recorded: increased |  | significantly increase; also recorded: promote |  |
| CC[C@H](C)[C@@H](O)[C@](C)(O)/C=C/C1=CC2=C(Cl)C(=O)[C@](C)(O)[C@H](OC(C)=O)[C@H]2CO1 [Compound 3, hypocrellone A] | did not change; also recorded: remains | > 100 |  | inhibit; also recorded: significantly reduce | decrease |  |
| CC[C@H](C)[C@@H](O)[C@@](C)(O)/C=C/C1=CC2=C(Cl)C(=O)[C@](C)(O)[C@H](OC(C)=O)[C@H]2CO1 [Compound 4, eupenicilazaphilone C] |  | > 100 | increased |  |  |  |
| CC[C@H](C)/C=C(C)/C=C/c1cc(O)c(C)c(O)c1C=O [Compound 5, ((1E,3E)-3,5-dimethylhepta-1,3-dien-1-yl)-2,4-dihydroxy-3-methylbenzaldehyde] |  | > 100 |  |  |  |  |
| CC[C@H](C)/C=C(C)/C=C/C1=CC2=C(Cl)C(=O)[C@](C)(OC(C)=O)C(=O)C2=CO1 [Compound 6, sclerotiorin] |  | > 100 | inhibited; also recorded: decreased |  | inhibited |  |
| CC[C@H](C)/C=C(C)/C=C/C1=CC2=C(Cl)C(=O)[C@](C)(O)[C@H](OC(C)=O)[C@H]2CO1 [Compound 7, isochromophilone IV] | did not change; also recorded: remains | > 100 |  | inhibit; also recorded: significantly reduce |  |  |
| CC(C)(O)c1cc(Nc2cc(Oc3cn(C4CC4)nc3C3CCOCC3)ccn2)ccn1 [LY3200882, reference compound] |  |  |  |  |  | TGF-β-induced Smad2/3 phosphorylation ([7]; 1 μM positive control, listed as TGFβRI inhibitor): trend toward a decrease; TGF-β-stimulated SMAD transcriptional activity ([6]; 1 μM positive control, n = 6, listed as TGFβRI inhibitor): decreased |
| COc1cccc2c1C(=O)c1c(O)c3c(c(O)c1C2=O)C[C@@](O)(C(=O)CO)C[C@@H]3O[C@H]1C[C@H](N)[C@H](O)[C@H](C)O1 [doxorubicin, reference compound] |  | 0.36 to 3.7 |  |  |  |  |

From PMC8537458, “Anti-Inflammatory Azaphilones from the Edible Alga-Derived Fungus Penicillium sclerotiorum” (Marine Drugs, 2021)
